Assays:
[1] = xn = mol fraction of the nth substance listed; conditions: 101 kPa, Liquid; for viscosity: Capillary tube (Ostwald / Ubbelohde) method
[2] = refractive index (Na D-line) (dimensionless); xn = mol fraction of the nth substance listed; conditions: 101 kPa, Liquid, Standard Abbe refractometry

CCc1ccccc1 [ethylbenzene] + COc1ccccc1
x2 = 0
Conditions | mass density, [1] [kg/m3] | refractive index, [2] | viscosity, [1] [mPa·s]
293.15 K | 866.95 | 1.4957 | 0.669
303.15 K | 858.01 | 1.4902 | 0.596

COc1ccccc1 [anisole] + CCc1ccccc1
Conditions | mass density, [1] [kg/m3] | refractive index, [2] | viscosity, [1] [mPa·s]
293.15 K, x1 = 0.1061 | 879.21 | 1.4977 | 0.691
293.15 K, x1 = 0.2202 | 892.9 | 1.5 | 0.721
293.15 K, x1 = 0.3206 | 905.19 | 1.502 | 0.752
293.15 K, x1 = 0.4278 | 918.51 | 1.5041 | 0.789
293.15 K, x1 = 0.5402 | 932.69 | 1.5065 | 0.834
293.15 K, x1 = 0.6322 | 944.49 | 1.5086 | 0.876
293.15 K, x1 = 0.7282 | 956.99 | 1.5108 | 0.923
293.15 K, x1 = 0.8198 | 969.11 | 1.513 | 0.973
293.15 K, x1 = 0.8994 | 979.84 | 1.5153 | 1.02
293.15 K, x1 = 1 | 993.8 | 1.5177 | 1.084
303.15 K, x1 = 0.1061 | 870.49 | 1.4922 | 0.616
303.15 K, x1 = 0.2202 | 884.19 | 1.4944 | 0.639
303.15 K, x1 = 0.3206 | 896.45 | 1.4964 | 0.662
303.15 K, x1 = 0.4278 | 909.71 | 1.4986 | 0.689
303.15 K, x1 = 0.5402 | 923.84 | 1.501 | 0.725
303.15 K, x1 = 0.6322 | 935.58 | 1.5031 | 0.759
303.15 K, x1 = 0.7282 | 948.02 | 1.5053 | 0.798
303.15 K, x1 = 0.8198 | 960.07 | 1.5075 | 0.841
303.15 K, x1 = 0.8994 | 970.71 | 1.5099 | 0.878
303.15 K, x1 = 1 | 984.37 | 1.5124 | 0.931

CCCc1ccccc1 [propylbenzene] + COc1ccccc1
Conditions | mass density, [1] [kg/m3] | refractive index, [2] | viscosity, [1] [mPa·s]
293.15 K, x2 = 0 | 863.13 | 1.4916 | 0.855
293.15 K, x2 = 0.1216 | 876.73 | 1.4944 | 0.857
293.15 K, x2 = 0.2422 | 890.73 | 1.4972 | 0.862
293.15 K, x2 = 0.3455 | 903.18 | 1.4996 | 0.874
293.15 K, x2 = 0.4531 | 916.62 | 1.5023 | 0.892
293.15 K, x2 = 0.5658 | 931.23 | 1.5051 | 0.915
293.15 K, x2 = 0.6574 | 943.52 | 1.5076 | 0.94
293.15 K, x2 = 0.7486 | 956.19 | 1.5101 | 0.971
293.15 K, x2 = 0.8349 | 968.57 | 1.5126 | 1.005
293.15 K, x2 = 0.916 | 980.65 | 1.515 | 1.042
303.15 K, x2 = 0 | 854.71 | 1.4858 | 0.744
303.15 K, x2 = 0.1216 | 868.36 | 1.4886 | 0.748
303.15 K, x2 = 0.2422 | 882.36 | 1.4914 | 0.752
303.15 K, x2 = 0.3455 | 894.78 | 1.4939 | 0.758
303.15 K, x2 = 0.4531 | 908.15 | 1.4966 | 0.77
303.15 K, x2 = 0.5658 | 922.67 | 1.4995 | 0.79
303.15 K, x2 = 0.6574 | 934.9 | 1.5019 | 0.812
303.15 K, x2 = 0.7486 | 947.46 | 1.5045 | 0.84
303.15 K, x2 = 0.8349 | 959.71 | 1.507 | 0.87
303.15 K, x2 = 0.916 | 971.62 | 1.5095 | 0.899

COc1ccccc1 [anisole] + Cc1ccccc1
Conditions | mass density, [1] [kg/m3] | refractive index, [2] | viscosity, [1] [mPa·s]
293.15 K, x1 = 0.0966 | 879.58 | 1.4993 | 0.62
293.15 K, x1 = 0.1954 | 892.47 | 1.5016 | 0.656
293.15 K, x1 = 0.2911 | 904.89 | 1.5037 | 0.693
293.15 K, x1 = 0.3936 | 918.06 | 1.506 | 0.736
293.15 K, x1 = 0.5043 | 932.17 | 1.5083 | 0.787
293.15 K, x1 = 0.5985 | 944.06 | 1.5102 | 0.834
293.15 K, x1 = 0.6995 | 956.7 | 1.5122 | 0.89
293.15 K, x1 = 0.7956 | 968.63 | 1.514 | 0.947
293.15 K, x1 = 0.8986 | 981.29 | 1.5159 | 1.013
293.15 K, x1 = 1 | 993.8 | 1.5177 | 1.084
303.15 K, x1 = 0.0966 | 870.21 | 1.4936 | 0.549
303.15 K, x1 = 0.1954 | 883.13 | 1.4959 | 0.579
303.15 K, x1 = 0.2911 | 895.55 | 1.4981 | 0.61
303.15 K, x1 = 0.3936 | 908.76 | 1.5003 | 0.645
303.15 K, x1 = 0.5043 | 922.89 | 1.5027 | 0.687
303.15 K, x1 = 0.5985 | 934.8 | 1.5046 | 0.726
303.15 K, x1 = 0.6995 | 947.44 | 1.5067 | 0.772
303.15 K, x1 = 0.7956 | 959.38 | 1.5085 | 0.818
303.15 K, x1 = 0.8986 | 972.06 | 1.5105 | 0.872
303.15 K, x1 = 1 | 984.37 | 1.5124 | 0.931

— the NIST ThermoML archive (doi:10.1021/je0502546)
